Patent EP0384661A1, “Antialgal compositions comprising diphenylethers” (ROHM AND HAAS COMPANY, priority 1989, dated 1990)

What was measured:
[1] = system: mixed population of algae and blue-green bacteria; experiment: Model cooling tower biofilm efficacy (chlorophyll a); format: cell-based; conditions: one-per-week slug doses, biofilm harvested after four weeks
Procedure: Oxyfluorfen was tested as a water treatment antialgal compound in model cooling towers which simulate pertinent process variables of industrial cooling towers. Compounds were dosed on a regular basis and the efficacy of the treatments was determined by measuring a parameter of algal or cyanobacterial biomass; specific operating parameters are described below.
The basic design consisted of an acrylic plastic tower placed within a 17-liter polycarbonate basin. Each model contained a temperature control system, acid (H₂SO₄) or base (KOH) feed for pH control, air flow regulators, water recirculation system, and a makeup water supply. Two sets of five towers were placed in vented enclosures.
The basin contained an overflow port positioned to provide a constant 8-liter working volume in the system. […]
Illumination was provided by cool white and grow-lux fluorescent lights operated on a 19 hours per day cycle. The heating system for each unit consisted of an immersion heating element, temperature controller, two thermistors, and a direct readout thermometer. […]
The model cooling towers were designed and operated to maintain a constant half-life in each unit. […] The rate of removal of a given compound from the system was thereby determined by the concentration of the material in the bulkwater and the rate of blowdown from the tower. […]

[2] = system: mixed cooling tower culture; experiment: Simulated cooling tower water jar test, visual growth rating; format: cell-based; set-up: key to Visual Rating (7 Day Incubation): 0 = no growth; 1 = slight growth; 3 = moderate growth; 5 = abundant growth; conditions: for Visual Rating (7 Day Incubation): synthetic cooling tower water pH 8.5
Procedure: A study was conducted with simulated cooling tower water to determine the effect of oxyfluorfen as an antialgal compound under simulated cooling tower conditions. Synthetic cooling tower water was made up with the following final concentrations (pH 8.5): Approximately 500 ml of the above solution was added to half-gallon jars and each jar was charged with given levels of oxyfluorfen (supplied as an emulsifiable concentrate); one jar contained no antialgal compound (control). Another set of jars was prepared with known levels of Isothiazolone A, a known antialgal compound for comparison purposes. Each jar was inoculated with 5 ml of a mixed cooling tower culture which was obtained from surface scrapings of industrial cooling towers; the mixed populations were maintained at room temperature in modified Allen's Media Formulation B described below in Part B. Each jar was inoculated two times per week to challenge the system. Jars were incubated under a 12 hour illumination cycle at room temperature (25°C) and were mixed manually (by swirling) three times per day. Visual observations were recorded daily using the rating scale described in Part C.

Anabaena flos-aquae = experiment: MIC microtiter plate assay; format: cell-based; conditions: Dolichospermum flos-aquae; growth/no-growth after 14 or 21 days, 25°C
Procedure: (§1) Efficacy studies were conducted on a variety of microorganisms with oxyfluorfen. Minimum Inhibitory Concentration (MIC) studies were conducted using microtiter plate assays. In this method, a wide range of concentrations was tested by preparing two-fold serial dilutions of the compound in 96-well plastic microtiter plates. All liquid media transfers were performed with calibrated single or multichannel digital pipetters. Stock solutions of compounds were prepared in appropriate solvents and dispensed to the growth medium. All subsequent dilutions in plates were made using the desired growth medium. The total volume of liquid in each well was 100 ul. The pure cultures used in this study were obtained from the Culture Collection of Algae at the University of Texas at Austin (UTEX). The mixed culture of algae was obtained from a cooling tower biofilm and maintained in liquid medium; microorganisms used as inocula were cultured in shaken liquid culture (50 ml of Bristol's medium, pH 7.0, 25°C); Journal of Phycology, 23s: 1-47, 1987) for one week or as needed to attain a desired cell mass. The cultures were then inoculated into the microtiter plates using a 96-prong multiple inoculator (5 µl inoculum); each well received a standard suspension of biomass (5% inoculum). Plates were incubated at 25°C under constant illumination (500 ft candles). The extent of growth was determined under low magnification with the aid of a microtiter plate reader. The growth in each cell was monitored periodically and growth/no-growth was recorded after 14 or 21 days. […] Following the evaluation procedure of Example 3, compounds according to the following structural formula, with X and Y substituents according to Table 4A, were evaluated with the results shown in Table 4B. [drawing 4]

[3] = system: Mixed Cooling Tower Culture; experiment: MIC microtiter plate assay; format: cell-based, mixed culture of algae; conditions: growth/no-growth after 14 or 21 days, 25°C
Procedure: as §1

CCOc1cc(Oc2ccc(C(F)(F)F)cc2Cl)ccc1[N+](=O)[O-] [Oxyfluorfen, oxyfluorfen]
Chlorophyll a in Biofilm ([1]; 0.05 ppm): 3.27 ug/cm2 | activity at 0.05 ppm ([1]; 672 h, read-out: Chlorophyll a in Biofilm % of control): 24% | Visual Rating (7 Day Incubation) ([2]; 0.005 ppm): 0 | Visual Rating (7 Day Incubation) ([2]; 0.010 ppm): 0 | Visual Rating (7 Day Incubation) ([2]; 0.025 ppm): 0 | Visual Rating (7 Day Incubation) ([2]; 0.050 ppm): 0 | Visual Rating (7 Day Incubation) ([2]; 0.100 ppm): 0 | Visual Rating (7 Day Incubation) ([2]; 0.250 ppm): 0 | Visual Rating (7 Day Incubation) ([2]; 0.500 ppm): 0 | levels effective for controlling cooling tower algae ([2]; simulated water chemistry conditions): ≤ 5 ppb | MIC (Anabaena flos-aquae): > 500 µg/mL | MIC [3]: < 0.004 µg/mL
